Converted amounts (≈) assume the structure as drawn. Read-outs that look alike come from different tables or passages of the source.
Tests used:
[1] = biological target: T1, P2X7R (Mus musculus, UniProt Q9Z1M0); experiment: Dye uptake assay (propidium iodide) in mouse peritoneal macrophages; assay type: cell-based; conditions: mean ± SD; for inhibition at 10 µM: percentage relative to the maximum uptake of propidium stimulated by 1 mM ATP only; for IC50: propidium uptake assay, mice peritoneal macrophages
T1 construct: plated for 24 h before dye uptake assays, whole-cell patch clamp experiments, and IL-1β release assays; endogenous in cells; host or cells: mouse (Swiss Webster) peritoneal macrophages
T1 sequence (Q9Z1M0 1-595): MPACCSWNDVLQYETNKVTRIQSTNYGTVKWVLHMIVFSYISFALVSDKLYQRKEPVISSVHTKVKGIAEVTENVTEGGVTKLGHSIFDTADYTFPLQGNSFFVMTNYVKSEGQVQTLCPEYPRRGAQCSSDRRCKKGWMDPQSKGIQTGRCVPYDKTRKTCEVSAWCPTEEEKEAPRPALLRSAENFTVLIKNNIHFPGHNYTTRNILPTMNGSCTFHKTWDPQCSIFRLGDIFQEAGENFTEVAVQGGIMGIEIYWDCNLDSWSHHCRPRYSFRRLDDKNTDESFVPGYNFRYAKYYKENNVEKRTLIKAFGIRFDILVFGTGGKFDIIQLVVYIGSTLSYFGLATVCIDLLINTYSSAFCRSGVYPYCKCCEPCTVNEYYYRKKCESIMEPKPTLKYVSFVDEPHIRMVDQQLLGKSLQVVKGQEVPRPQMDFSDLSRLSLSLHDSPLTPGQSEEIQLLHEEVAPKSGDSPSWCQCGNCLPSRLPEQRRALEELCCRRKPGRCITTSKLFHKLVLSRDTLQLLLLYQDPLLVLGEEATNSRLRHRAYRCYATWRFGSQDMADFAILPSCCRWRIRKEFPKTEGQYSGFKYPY
Experimental: Our protocols adhered to the Ethical Principles in Animal Experimentation adopted by the Brazilian College of Animal Experimentation and approved by the FIOCRUZ Research Ethics Committee (Faria et al., [2005]; number L039- 2016). Male mouse (Swiss Webster) peritoneal macrophages were collected from peritoneal cavity lavage and plated for 24 h before dye uptake assays, whole-cell patch clamp experiments, and IL-1β release assays.
HEK-293 cells transfected with hP2X7R and mouse peritoneal macrophages were plated at 2.5 × 10^6 or 5 × 10^5 cells/ml, respectively, in 96-well culture plates containing DMEM with 10% FBS and anti-biotics (50 U/ml penicillin and […] streptomycin) in a humidified 5% CO2 atmosphere at 37°C for 24 h (Faria et al., [2018]).
[…] In the last 5 min of ATP incubation, propidium iodide for macrophages (PI; 750 nM) or ethidium bromide (EB; 25 μM) for HEK-293 cells was added to all wells. PI dye was excited at a wavelength of 530 nm, and its fluorescence emission was read at a wavelength of 590 nm using an M5 plate reader (Molecular Devices). EB dye was excited at a wavelength of 530 nm and emitted at a wavelength of 620 nm.

[2] = pH-dependent kinetic solubility; assay type: physicochemical; conditions: kinetic from dmso stock
Experimental: DMSO stock solutions (5 μl) were added into a 995-μl acetonitrile/buffer (1:1) mixture to prepare the calibration standard solutions. The reaction samples were centrifuged (10,000 rpm, 10 min, 25°C) and diluted 1:1 with acetonitrile (Faria et al., [2018]).

[3] = test system: P2X7R-mediated IL-1β release; experiment: ATP-induced IL-1β release (ELISA) in differentiated THP-1 cells; assay type: cell-based, human
Experimental: P2X7R-mediated IL-1β release was obtained from differentiated THP-1 cells stimulated with lipopolysaccharide (LPS) before ATP addition. […] THP-1 cells were differentiated with 500 ng/ml phorbol 12-myristate 13-acetate (PMA) and 10 ng/ml IFN-γ cotreatment for 24 h. These cells were activated with 25 ng/ml LPS for 4 h. […] P2X7R antagonists (BBG and A740003) and thiadiazole analogs were added 30 min before the ATP stimulus. The supernatants were collected, centrifuged (1,000 rpm for 5 min at 4°C), and stored at −70°C after LPS incubation. IL-1β was quantified using a standard kit (ABCAM, Cambridge).

[4] = Distribution coefficient (Log D) in octanol/PBS pH 7.4; assay type: physicochemical; conditions: average of three experiments, read-out: Log D7.4
Experimental: Octanol and Phosphate-buffered saline (PBS) solution at a ratio of 1:1 (v/v) at pH 7.4 was shaken mechanically for 24 h to reach presaturation. Crescent octanol volumes (100–400 μl) were added to PBS (396 μl) and thiadiazole 9f (25 mM) in a volume of 4 μl. This solution was shaken for 2 h and centrifuged (3,000 rpm) for 5 min, and the PBS layer was collected 1 h later. To measure the PBS layer absorbance, a 100-μl aliquot (396 μl of PBS containing 4 μl of 9f + 400 μl of acetonitrile) was partitioned with acetonitrile (100 μl; Faria et al., [2018]).

[5] = biological target: T2, P2Y6R (Mus musculus, UniProt Q9ERK9); experiment: UDPβS-activated [Ca2+]i shifts in mouse peritoneal macrophages; assay type: cell-based; conditions: concentration not given
T2 construct: endogenous in cells; host or cells: mouse peritoneal macrophages
T2 sequence (Q9ERK9 whole entry): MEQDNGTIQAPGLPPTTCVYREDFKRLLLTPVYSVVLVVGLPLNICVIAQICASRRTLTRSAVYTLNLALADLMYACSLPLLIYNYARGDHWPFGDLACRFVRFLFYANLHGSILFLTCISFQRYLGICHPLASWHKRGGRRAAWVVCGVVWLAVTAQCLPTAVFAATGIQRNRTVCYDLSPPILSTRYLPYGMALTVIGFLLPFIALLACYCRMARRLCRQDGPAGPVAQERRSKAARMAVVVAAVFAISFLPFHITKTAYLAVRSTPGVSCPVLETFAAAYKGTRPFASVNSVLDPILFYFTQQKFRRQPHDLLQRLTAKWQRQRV
Experimental: (§1) Mouse peritoneal macrophages, PC12 cells, J774 cells, and HEPG2 cells were analyzed by fluorescence microscopy to measure the intracellular Ca^2+ concentrations ([Ca^2+]i). Cells were incubated with 2 μM Fura-2-AM (Molecular Probes) for 30 min, and the [Ca^2+]i mobilization was measured in the F340/F380 ratios with a FlexStation 3 multimode microplate reader (Molecular Devices). Cells were plated in translucent 96-well plates (BD Falcon) for 15 min and then washed and incubated in a saline solution with 150 NaCl, 5 KCl, 1 MgCl2, 1 CaCl2, and 10 HEPES (pH 7.4) for 30 min before measurements of [Ca^2+]i. The Ca^2+ influx was induced by stimulating cells with P2 receptor agonists. P2 receptor antagonists were added 10 min before P2 receptor agonist addition. […] Ionomycin was considered a positive control, and the other recordings were normalized in relation to the AUC.

[6] = biological target: T3, P2X2R (Rattus norvegicus, UniProt P49653); experiment: ATP-induced [Ca2+]i shifts in PC12 cells; assay type: cell-based
T3 construct: endogenous in cells; host or cells: PC12 cells
T3 sequence (P49653 1-472): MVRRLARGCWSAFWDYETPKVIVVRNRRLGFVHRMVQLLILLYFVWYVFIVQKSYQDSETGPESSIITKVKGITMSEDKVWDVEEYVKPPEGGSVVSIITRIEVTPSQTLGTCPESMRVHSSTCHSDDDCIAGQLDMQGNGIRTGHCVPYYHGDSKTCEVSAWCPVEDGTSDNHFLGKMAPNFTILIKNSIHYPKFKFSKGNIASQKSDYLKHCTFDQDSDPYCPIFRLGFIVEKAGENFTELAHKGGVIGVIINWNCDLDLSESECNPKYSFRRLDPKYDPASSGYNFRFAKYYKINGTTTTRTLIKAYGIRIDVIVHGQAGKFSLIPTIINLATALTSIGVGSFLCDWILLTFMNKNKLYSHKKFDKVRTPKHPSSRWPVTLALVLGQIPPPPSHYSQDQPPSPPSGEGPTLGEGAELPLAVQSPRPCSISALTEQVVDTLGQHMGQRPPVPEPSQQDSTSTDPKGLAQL
Experimental: as §1

[7] = biological target: T4, P2Y4R (Mus musculus, UniProt Q9JJS7); experiment: MRS4062-induced [Ca2+]i shifts in mice peritoneal macrophages; assay type: cell-based; conditions: concentration not given
T4 construct: endogenous in cells; host or cells: mouse peritoneal macrophages
T4 sequence (Q9JJS7 whole entry): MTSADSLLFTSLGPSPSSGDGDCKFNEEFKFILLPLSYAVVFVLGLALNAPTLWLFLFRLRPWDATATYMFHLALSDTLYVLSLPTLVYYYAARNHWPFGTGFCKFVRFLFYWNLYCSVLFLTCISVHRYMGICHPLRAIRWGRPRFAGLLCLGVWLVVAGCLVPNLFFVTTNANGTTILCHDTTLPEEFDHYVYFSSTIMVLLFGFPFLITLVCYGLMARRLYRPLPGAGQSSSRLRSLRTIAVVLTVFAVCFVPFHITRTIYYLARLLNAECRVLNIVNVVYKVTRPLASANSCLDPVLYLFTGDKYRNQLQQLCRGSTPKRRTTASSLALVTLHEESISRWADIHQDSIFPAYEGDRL
Experimental: as §1

[8] = buffer, aqueous buffer, acidic pH values
[9] = phosphate buffer, pH 7.4, aqueous buffer
[10] = ATP-induced IL-1β release, LPS/IFN-differentiated human THP-1 cells, read-out: THP-1 cells IC50

Row | Structure (SMILES) | inhibition at 10 µM [1] [%] | IC50 [1] [nM] | solubility at 2 h [2, 8] [µM] | solubility at 2 h ([2]; buffer, pH 10, aqueous buffer) [µM] | solubility at 2 h [2, 9] [µM] | melting point [°C] | IC50 [3, 10] [nM] | logD [4] | IC50 ([3]; Homo sapiens, THP-1 cells, read-out: IC50, IL-1β release) [nM] | Effect on UDPβS-activated [Ca2+]i shifts [5] | Effect on ATP-induced [Ca2+]i shifts ([6]; 100 μM) | Effect on MRS4062-induced [Ca2+]i shifts [7] | Effect on ATP-induced [Ca2+]i shifts ([6]; 10 μM) | Potency relative to BBG (times more potent) ([3]; IL-1β release, THP-1 cells) | Potency relative to A740003 ([3]; IL-1β release, THP-1 cells) [times]
1 | N#Cc1cnn(-c2nnc(-c3ccccc3Cl)s2)c1N [Compound 9b] | 30 ± 0.6 | 111 ± 9 | 300 (≈ 90.8 µg/mL) | > 500 | > 500 | 250 to 251 | 298 ± 8 | -1.2 ± 0.1 |  |  |  |  |  | approximately 10 times | 
2 | CCOC(=O)c1cnn(-c2nnc(-c3ccccc3Cl)s2)c1N [Compound 9f] | 15.7 ± 0.6 | 16 ± 2 | 300 (≈ 105 µg/mL) | > 500 | > 500 | 190 to 191 | 19 ± 3 | -3.7 ± 0.2 | 20 to 300 | did not show inhibitory activity | did not inhibit | did not inhibit |  | more than 20 times | > 10
3 | COc1ccc(CC(=O)NC(NC(=NC#N)Nc2cccc3ncccc23)C(C)(C)C)cc1OC (stereo not shown) [Compound A740003, N-(1-{[(cyanoimino)(5-quinolinylamino)methyl]amino}-2,2-dimethylpropyl)-2-(3,4-dimethoxyphenyl)acetamide] |  | 108 ± 16 |  |  |  |  | 223 ± 18 |  |  | did not show inhibitory activity |  | did not inhibit | did not inhibit |  | 

Further lines, with some results ahead:

Row | inhibition at 10 µM [1] [%] | IC50 [1] [nM] | solubility at 2 h [2, 8] [µM] | solubility at 2 h ([2]; buffer, pH 10, aqueous buffer) [µM] | solubility at 2 h [2, 9] [µM] | melting point [°C] | IC50 [3, 10] [nM] | logD [4] | IC50 ([3]; Homo sapiens, THP-1 cells, read-out: IC50, IL-1β release) [nM] | Effect on UDPβS-activated [Ca2+]i shifts [5] | Effect on ATP-induced [Ca2+]i shifts ([6]; 100 μM) | Effect on MRS4062-induced [Ca2+]i shifts [7] | Effect on ATP-induced [Ca2+]i shifts ([6]; 10 μM) | Structure (SMILES) | Potency relative to BBG (times more potent) ([3]; IL-1β release, THP-1 cells) | Potency relative to A740003 ([3]; IL-1β release, THP-1 cells) [times]
4 | 28.2 ± 0.7 | 109 ± 11 | 300 (≈ 85.9 µg/mL) | > 500 | > 500 | 262 to 263 | 279 ± 35 | -0.9 ± 0.1 |  |  |  |  |  | N#Cc1cnn(-c2nnc(-c3ccc(F)cc3)s2)c1N [Compound 9c] | approximately 10 times | 
5 | 29.2 ± 0.3 | 122 ± 13 | 300 (≈ 82.3 µg/mL) | > 500 | > 500 | 174 | 240 ± 17 | -4.2 ± 0.4 |  |  |  |  |  | Cc1cc(C)n(-c2nnc(-c3ccc(F)cc3)s2)n1 [Compound 11c, 2-(3,5-dimethyl-1H-pyrazol-1-yl)-5-(4-fluorophenyl)-1,3,4-thiadiazole] | approximately 10 times | 

Source: PMC6511888, “Synthesis, Biological Evaluation, and Molecular Modeling Studies of New Thiadiazole Derivatives as Potent P2X7 Receptor Inhibitors” (Frontiers in Chemistry, 2019)
